Data taken from patent US4654342A, “6-(cyanoguanidinophenyl)pyridazinones as cardiac stimulants” (Smith Kline & French Laboratories Ltd., priority 1984, dated 1987).
Like-named read-outs stand apart in the source and are kept apart here.

Legend:
Type (III) PDE = biological target: T1, Type (III) PDE (Cavia porcellus, UniProt H0VIU9); experiment: Phosphodiesterase Type (III) inhibition; type: biochemical, guinea pig; conditions: 1 μm cyclic AMP, 10 minutes; 10 minutes pre-incubation; read-out: IC50, inhibition of `low Km` Type (III) PDE activity
T1 construct: phosphodiesterases (PDE) isolated from guinea pig ventricle; from tissue; host or cells: guinea pig ventricle; forms separated by ion-exchange chromatography
T1 sequence (H0VIU9 1-1132): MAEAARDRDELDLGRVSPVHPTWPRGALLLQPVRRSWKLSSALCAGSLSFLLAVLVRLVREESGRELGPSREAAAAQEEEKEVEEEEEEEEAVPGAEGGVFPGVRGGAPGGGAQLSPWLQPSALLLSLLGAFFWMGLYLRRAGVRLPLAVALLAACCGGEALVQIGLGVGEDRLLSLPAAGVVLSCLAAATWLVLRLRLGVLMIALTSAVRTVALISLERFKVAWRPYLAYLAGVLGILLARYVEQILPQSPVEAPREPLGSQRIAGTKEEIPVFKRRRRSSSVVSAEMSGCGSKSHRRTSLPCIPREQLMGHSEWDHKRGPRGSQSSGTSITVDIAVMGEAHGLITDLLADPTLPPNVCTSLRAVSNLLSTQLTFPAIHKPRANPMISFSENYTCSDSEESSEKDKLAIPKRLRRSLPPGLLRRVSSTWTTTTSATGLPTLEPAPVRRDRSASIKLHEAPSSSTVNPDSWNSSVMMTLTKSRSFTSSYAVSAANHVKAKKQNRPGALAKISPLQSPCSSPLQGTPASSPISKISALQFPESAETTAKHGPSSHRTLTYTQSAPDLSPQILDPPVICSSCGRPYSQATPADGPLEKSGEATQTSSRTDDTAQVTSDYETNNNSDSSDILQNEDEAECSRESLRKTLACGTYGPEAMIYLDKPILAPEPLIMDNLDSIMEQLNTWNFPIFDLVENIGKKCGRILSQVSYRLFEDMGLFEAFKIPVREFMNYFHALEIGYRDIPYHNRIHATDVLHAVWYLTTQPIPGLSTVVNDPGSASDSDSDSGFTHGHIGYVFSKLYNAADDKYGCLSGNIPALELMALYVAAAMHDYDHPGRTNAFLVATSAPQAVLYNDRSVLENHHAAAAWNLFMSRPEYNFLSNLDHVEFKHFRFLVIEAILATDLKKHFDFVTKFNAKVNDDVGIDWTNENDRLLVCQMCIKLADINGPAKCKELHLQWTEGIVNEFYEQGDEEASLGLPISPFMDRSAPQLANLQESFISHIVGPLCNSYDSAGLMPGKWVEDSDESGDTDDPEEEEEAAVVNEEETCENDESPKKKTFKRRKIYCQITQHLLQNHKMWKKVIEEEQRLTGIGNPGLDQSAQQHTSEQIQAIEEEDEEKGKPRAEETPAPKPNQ
Experimental: The products of Example 13 were tested for selectivity as inhibitors of the phosphodiesterases (PDE) isolated from guinea pig ventricle. Three forms of PDE were isolated by ion-exchange chromatography using the method of Thompson et al, Adv. Nucleotide Research, vol 10, p 69, Brooker et al (Eds), Raven Press, 1979.
In separate experiments with the (-)-isomer, the (+)-isomer and racemic material, following a 10 minutes pre-incubation of the test compound with Type (III) PDE, PDE activity was measured at 1 μm cyclic AMP for 10 minutes (using a modification of the method of Davis and Daly, Journal of Cyclic Nucleotide Research, vol 5, p 65, Raven Press, 1979). IC50 values were obtained for inhibition of `low Km` Type (III) PDE activity: […]

right ventricular strips = experiment: Cardiac stimulant activity in vitro, guinea pig ventricular strips (force of contraction)
Experimental: The compounds of formula (I) and their pharmaceutically acceptable salts are tested for cardiac stimulant activity following a procedure based on that of S. C. Verma and J. H. McNeill (J.Pharm & Exp. Therapeutics, 200, 352-362 (1977)). Guinea pigs (500-700 g) of either sex are sacrificed and the hearts are quickly removed and transferred to a dissecting dish containing oxygenated bathing fluid. While in the bathing medium, the right ventricle is cut into two strips. The strips are each suspended in a 50 ml bath containing Krebs Henseleit solution at 37° C., and the bath is bubbled with 95% oxygen and 5% carbon dioxide. The ventricular strips are electrically stimulated at a frequency of 1.0 Hz, at double the threshold voltage. A resting tension of 1.0 g is applied to the strips and the tension is kept constant by readjustment during an equilibration period of 60 minutes. The bathing fluid is frequently changed during this period. When a steady base line is obtained, a compound under test is added to the bathing fluid and a cumulative concentration response curve is plotted. The compounds for use in the present invention which were tested gave a 50% increase in the force of contraction of the ventricular strips at concentrations in the bathing fluid of less than 10^-4 molar, thus showing that they have activity as positive inotropic agents.

[1] = tested on: left ventricular dp/dt max; experiment: Cardiac stimulant activity in vivo, anaesthetised cats (left ventricular dp/dt max); set-up: species or system cat; key to Relative Duration: ***: long; **: medium; *: short; conditions: for positive inotropism, relative to the (+)-isomer: anaesthetised cat screen; for ED50: Felis catus, intravenous, dose to increase left ventricular dp/dt max by 50%, anaesthetised cats; for Relative Duration: estimated in anaesthetised cats following i.v. administration
Source text: The dose to increase left ventricular dp/dt max by 50% is given as the ED50.

hindquarters blood flow = experiment: Vasodilator activity, anaesthetised rat hindquarters autoperfused at constant blood pressure; type: in vivo; conditions: anaesthetised rat hindquarters screen
Source text: The dose to increase hindquarters blood flow by 50% was 4.6 μmol/Kg.

[2] = tested on: hindquarters perfusion pressure; experiment: Vasodilator activity, anaesthetised cat hindquarters autoperfused at constant blood flow; type: in vivo; conditions: for vasodilatation, relative to the (+)-isomer: anaesthetised cat screen; for ED15: Felis catus, anaesthetised cat, constant blood flow, read-out: dose to decrease hindquarters perfusion pressure (vasodilatation) by 15%
Experimental: The compounds of Examples 3, 4, 5 and 8 were tested in autoperfused anaesthetised cat hindquarters (autoperfused at constant blood flow). The doses to decrease hindquarters perfusion pressure (vasodilatation) by 15% are given below: […]

[3] = tested on: left ventricular dp/dt max; experiment: Cardiac stimulant activity in vivo, conscious dogs (left ventricular dp/dt max); set-up: species or system dog
Experimental: Oral administration caused positive inotropic responses at doses of 0.25 mg/kg and below. […] Therefore this compound is particularly beneficial with regard to `force-rate` selectivity.

[4] = in vitro, read-out: EC50 value, inotropic activity on guinea pig ventricular strip
[5] = Cavia porcellus, 50% increase in force of contraction, guinea pig ventricular strips, read-out: EC50 × 10^-6 M

SMILES | IC50 (Type (III) PDE) [µM] | EC50 (right ventricular strips; [4]) [µM] | ED50 [1] [µmol/kg] | Relative Duration [1] | ED15 [2] [mg/kg] | EC50 (right ventricular strips; [5]) [µM] | other results
CC1CC(=O)NN=C1c1ccc(N)cc1 (single isomer, unassigned; (+)) [(+)-isomer, (+)-6-(4-aminophenyl)-5-methyl-4,5-dihydro-3(2H)-pyridazinone] | 207 ± 88 | 11.3 |  |  |  |  | 
CNC(=NC#N)Nc1ccc(C2=NNC(=O)CC2C)cc1 (single isomer, unassigned; (-)) [Example 14, (-)-6-[4-(N^3 -Methyl-N^2-cyanoguanidino)phenyl]-5-methyl-4,5-dihydro-3(2H)-pyridazinone] | 1.7 ± 1 | 0.71 |  |  |  |  | positive inotropism, relative to the (+)-isomer [1]: more active than the corresponding (+)-isomer of Example 15; dose to increase hindquarters blood flow by 50% (hindquarters blood flow): 2.4 µM/kg; vasodilatation, relative to the (+)-isomer [2]: more active than the corresponding (+)-isomer of Example 15
CC1CC(=O)NN=C1c1ccc(N)cc1 (racemic) [racemate, 6-(4-aminophenyl)-5-methyl-4,5-dihydro-3(2H)-pyridazinone] | 37 ± 12.9 |  |  |  |  |  | 
CNC(=NC#N)Nc1ccc(C2=NNC(=O)CC2)cc1 [Example 8, 6-[4-(N^3 -Methyl-N^2-cyanoguanidino)phenyl]-4,5-dihydro3(2H)-pyridazinone] |  |  | 1.6 | ** | 1 |  | activation at 31.6 µM (right ventricular strips; Cavia porcellus, at 31.6 × 10^-6 M, read-out: increase in force of contraction (printed in EC50 column)): 40%
CNC(=NC#N)Nc1ccc(C2=NNC(=O)CC2C)cc1 (single isomer, unassigned; (+)) [Example 15, (+)-6-[4-(N^3 -Methyl-N^2-cyanoguanidino)phenyl]-5-methyl-4,5-dihydro-3(2H)-pyridazinone] | 11.3 ± 5.4 | 4.3 |  |  |  |  | dose to increase hindquarters blood flow by 50% (hindquarters blood flow): 8.6 µM/kg
CC1CC(=O)NN=C1c1ccc(N)cc1 (single isomer, unassigned; (-)) [(-)-isomer, (-)-6-(4-aminophenyl)-5-methyl-4,5-dihydro-3(2H)-pyridazinone] | 9.6 ± 3.4 | 1.4 |  |  |  |  | positive inotropism, relative to the (+)-isomer [1]: more active than the (+)-isomer; vasodilatation, relative to the (+)-isomer [2]: more active than the (+)-isomer
Nc1cc(-c2ccncc2)c[nH]c1=O [Amrinone, reference compound] |  |  | 5.6 | * |  | 15 | activity relative to compound of Example 1 [3]: less active; duration relative to compound of Example 1 [3]: of shorter duration
CCNC(=NC#N)Nc1ccc(C2=NNC(=O)CC2C)cc1 (stereo not drawn) [Example 3, 6-[4-(N^3 -Ethyl-N^2-cyanoguanidino)phenyl]-5-methyl-4,5-dihydro-3(2H)-pyridazinone] |  |  | 0.2 | *** | 0.044 | 1.4 | 
CC(C)NC(=NC#N)Nc1ccc(C2=NNC(=O)CC2C)cc1 (stereo not drawn) [Example 4, 6-[4-(N^3 -Isopropyl-N^2-cyanoguanidino)phenyl]-5-methyl-4,5-dihydro-3(2H)-pyridazinone] |  |  | 0.2 | ** | 0.082 | 0.8 | 
CCCCNC(=NC#N)Nc1ccc(C2=NNC(=O)CC2C)cc1 (stereo not drawn) [Example 5, 6-[4-(N^3 -Butyl-N^2-cyanoguanidino)phenyl]-5-methyl-4,5-dihydro-3(2H)-pyridazinone] |  |  | 0.31 | ** | 0.13 | 8.5 | 
CC1CC(=O)NN=C1c1ccc(NC(N)=NC#N)cc1 (stereo not drawn) [Example 6, 6-[4-(N^2 -Cyanoguanidino)phenyl]-5-methyl-4,5-dihydro-3(2H)-pyridazinone] |  |  | 0.7 | *** |  | 1.4 | 
